Test results as given in article PMC4340626, “Neuronal Expression of the Human Neuropeptide S Receptor NPSR1 Identifies NPS-Induced Calcium Signaling Pathways” (PLoS ONE, 2015).
Entries after “also recorded” stand apart in the source; their conditions may differ. Where a SMILES comes first, the peptide text is derived from it.

How the values were obtained:
[1] = tested on: IP3R; experiment: IP3 receptor antagonist 2-APB against NPS-evoked calcium signals; assay type: cell-based, mouse
[2] = tested on: transient receptor potential channel family; details: cited from earlier work
Source text: In previous in vitro studies, NPSR1 has been expressed in HEK293 or CHO cells. These studies focused on comparing NPS and NPSR1 variants with respect to their Gαq and Gαs activity, i.e. their efficiency to induce intracellular calcium responses and cAMP production upon receptor stimulation, analyzing population responses from plate readers instead of confocal single-cell calcium imaging.

[3] = tested on: SERCA-ATPases; experiment: SERCA inhibition with CPA: calcium leakage and effect on NPS-evoked calcium signals; assay type: cell-based, mouse
[4] = target: T1, human neuropeptide S receptor (NPSR1) (Homo sapiens, UniProt Q6W5P4); experiment: Single-cell calcium imaging (Fluo4) of NPS-evoked calcium signals in hippocampus neurons expressing NPSR1-mCherry; assay type: cell-based
T1 construct: expressed in transfected cells; host or cells: primary hippocampal neurons of P0-P2 C57BL/6 mice, transduced with AAV6 AAV-NPSR1-TS-mCherry-ER (hSyn promoter)
T1 sequence (Q6W5P4 1-371): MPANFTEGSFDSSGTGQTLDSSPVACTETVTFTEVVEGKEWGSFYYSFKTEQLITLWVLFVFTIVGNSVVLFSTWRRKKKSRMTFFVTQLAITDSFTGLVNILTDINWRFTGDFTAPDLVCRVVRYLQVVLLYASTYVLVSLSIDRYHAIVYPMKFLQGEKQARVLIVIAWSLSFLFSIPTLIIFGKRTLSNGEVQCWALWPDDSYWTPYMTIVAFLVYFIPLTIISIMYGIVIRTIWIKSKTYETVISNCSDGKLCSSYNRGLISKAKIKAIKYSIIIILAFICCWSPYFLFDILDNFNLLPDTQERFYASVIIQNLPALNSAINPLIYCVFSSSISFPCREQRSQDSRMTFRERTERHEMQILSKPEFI

[5] = tested on: untransfected hippocampus neurons; experiment: Calcium imaging of NPS in untransfected hippocampus neurons (control); assay type: cell-based, mouse; details: NPS 500 nM, 936 untransfected neurons
[6] = tested on: NPSR1-expressing hippocampus neurons, influx of extracellular calcium; experiment: NPS-evoked calcium signals in calcium-free solution / slow component (calcium influx); assay type: cell-based, mouse; details: NPS 500 nM, mean ± SD
[7] = tested on: store-operated calcium entry (SOCE); experiment: Store-operated calcium entry on re-addition of Ca2+ after NPS in calcium-free solution; assay type: cell-based, mouse; details: NPS 500 nM, n = 47 cells, mean ± SD
[8] = tested on: NPSR1; experiment: NPSR1 antagonist SHA68 against NPS-evoked calcium signals in NPSR1-expressing hippocampus neurons; assay type: cell-based, human
[9] = tested on: human NPSR1 variants; details: HEK293 or CHO cells; ref [1],[10],[23]–[25]; cited from earlier work
Source text: (§1) Despite these numerous biological functions, little is known about the molecular mechanisms underlying NPS receptor activity. […] However, the intracellular pathways downstream to NPSR1 activation have not been identified in deta ...

[10] = tested on: Colo205 cells expressing NPSR1; details: cited from earlier work
Source text: as §1

[11] = tested on: voltage activated calcium channels (Cav); experiment: Cav blocker cocktail on NPS-evoked calcium signals; assay type: cell-based, mouse; details: NPS 500 nM, first application, 148 neurons; mean ± SD
[12] = tested on: PLC
[13] = tested on: SOCE; experiment: SOCE blockers on slow component of NPSR1-evoked calcium signals; assay type: cell-based, mouse; details: NPS 500 nM
[14] = tested on: ryanodine receptors (RyR); experiment: Ryanodine receptor contribution to NPS-evoked calcium signals; assay type: cell-based, mouse; details: NPS 500 nM, mean ± SD
[15] = tested on: NPSR1; details: cited from earlier work
[16] = tested on: STIM-mediated SOCE; details: HeLa cells overexpressing STIM1; ref [50]; cited from earlier work
Source text: Store-operated calcium channels (SOCs) responsible for SOCE are known to be composed by the calcium release-activated calcium modulator 1 (ORAI) and members of the transient receptor potential type c (TRPC) channel families. Channel-activation is induced by interaction with the ER calcium sensor stromal interaction molecule (STIM).

[17] = tested on: SOCE; set-up: method as in PMID 12149283, PMID 2173565, PMID 18285445, PMID 21541286; details: non-excitable cells and neurons; ref [36]–[38], [39]; cited from earlier work
[18] = tested on: NPSR1-mediated calcium signals (action potentials suppressed); assay type: cell-based, mouse
[19] = repeated NPS 500 nM, 675 s interval, 111 neurons, mean ± SD, ANOVA p = 0.0133

Compound: 2-aminoethoxydiphenyl borate [2-APB]
- effect of 2-APB on responses to NPS [1]: prevented responses to NPS
- normalized mean fluorescence amplitude evoked by NPS after 2-APB washout [1]: 2.2 ± 2.13
- normalized mean fluorescence amplitude evoked by NPS in presence of 2-APB [1]: 0.39 ± 0.61
- modulation of transient receptor potential channel family members [2]: modulates several members of the transient receptor potential channel family

Compound: CC(O)=C1C(=O)C2C3c4cccc5[nH]cc(c45)CC3C(C)(C)N2C1=O (centres unmarked) [CPA, cyclopiaconic acid]
- normalized mean amplitude evoked by NPS after CPA ([3]; CPA 30 μM (500–650 s), NPS 500 nM, n = 397, mean ± SD, vs baseline p = 0.9992): 0.27 ± 0.4
- transient increase in cytosolic calcium evoked by CPA (fluorescence amplitude) ([3]; CPA 30 μM, 397 neurons, mean ± SD): 1.6 ± 1.17
- effect of CPA on NPSR1-mediated calcium signals ([3]; CPA 30 μM, NPS 500 nM, n = 397, ANOVA p < 0.0001): abolished NPSR1-mediated calcium signals

Compound: CSCC[C@H](NC(=O)CNC(=O)[C@@H](NC(=O)CNC(=O)[C@@H](NC(=O)CNC(=O)[C@H](CC(N)=O)NC(=O)[C@H](CCCNC(=N)N)NC(=O)[C@H](Cc1ccccc1)NC(=O)[C@@H](N)CO)C(C)C)[C@@H](C)O)C(=O)N[C@@H](CCCCN)C(=O)N[C@@H](CCCCN)C(=O)N[C@H](C(=O)N[C@@H](CO)C(=O)N[C@@H](Cc1ccccc1)C(=O)N[C@@H](CCC(N)=O)C(=O)N[C@@H](CCCNC(=N)N)C(=O)N[C@@H](C)C(=O)N[C@@H](CCCCN)C(=O)N[C@@H](CO)C(=O)O)[C@@H](C)O [NPS, neuropeptide S] (H-SFRNGVGTGMKKTSFQRAKS-OH; N-terminus and C-terminus assumed)
- increase in normalized mean fluorescence (f/f0) over baseline [4]: 3.5 ± 2.9
- rise time of NPSR1-dependent calcium signal (5–95% of max) ([4]; NPS 500 nM, initial rapid component, mean ± SD): 9.47 ± 5.77 s
- decay time of NPSR1-dependent calcium signal (95–5% of max) ([4]; NPS 500 nM, slower recovery phase, mean ± SD): 132.71 ± 94.11 s
- normalized mean fluorescence amplitude, 1st application [4, 19]: 3.6 ± 3.1
- normalized mean fluorescence amplitude, 2nd application [4, 19]: 3.2 ± 3.3
- normalized mean fluorescence amplitude, 3rd application [4, 19]: 2.4 ± 2.3
- calcium response to NPS in untransfected neurons [5]: no increase in normalized mean fluorescence intensity could be detected; also recorded: calcium responses could not be detected
- integral of response amplitude over time, slow component, control conditions ([6]; 3 mM CaCl2, 229 cells): 36.6 ± 8.3 x 10^4 (arbitrary units)
- integral of response amplitude over time, slow component, Ca2+-free solution ([6]; Ca2+-free, 5 mM EGTA, 65 neurons, t-test p < 0.0001): 23.4 ± 3.9 x 10^4 (arbitrary units)
- amplitude of initial fast component of NPS-evoked calcium signal, calcium-free conditions ([6]; nominally calcium-free, 5 mM EGTA, 65 neurons, t-test vs control p = 0.1054): 2.9 ± 1.9
- integral of response amplitude after re-addition of Ca2+, NPS applied once again under Ca2+-free conditions ([7]; ANOVA p < 0.0001): 5.9 ± 4.9 x 10^4 (arbitrary units)
- integral of response amplitude after re-addition of Ca2+, first NPS application under calcium-free conditions ([7]; control without NPS 2.1 ± 3.2 x 10^4): 14.8 ± 7.2 x 10^4 (arbitrary units)
- normalized mean fluorescence amplitude, NPS before SHA68 ([8]; NPS 250 nM, 204 neurons, mean ± SD): 2.9 ± 1.8
- calcium mobilization and cAMP accumulation [9]: elicit calcium mobilization and cAMP accumulation
- cell proliferation and MAP kinase phosphorylation [10]: dose-dependent stimulation of cell proliferation and MAP kinase phosphorylation
- mean fluorescence amplitude evoked by NPS before CPA ([3]; NPS 500 nM, 397 neurons, mean ± SD): 4.4 ± 2.69
- integral of response amplitude during recovery phase, control conditions [11]: 36.2 ± 7.5 x 10^4 (arbitrary units)
- normalized mean fluorescence amplitude evoked by NPS, first application before 2-APB ([1]; NPS 500 nM, 166 neurons, mean ± SD): 3.86 ± 2.34
- mean fluorescence amplitude evoked by NPS, first application before U73122 [12]: 3.44 ± 1.27
- integral of response amplitude of slow component, control conditions (no SOCE blocker) ([13]; 229 cells, mean ± SD): 36.6 ± 8.3 x 10^4 (arbitrary units)
- normalized mean fluorescence amplitude evoked by NPS prior to ryanodine ([14]; 136 neurons): 2.7 ± 1.48
- normalized mean fluorescence amplitude, control recordings without ryanodine, first NPS application ([14]; 155 control neurons): 2.35 ± 1.9
- normalized mean fluorescence amplitude, control recordings without ryanodine, second NPS application ([14]; 155 control neurons): 1.74 ± 1.4
- amplitude of second NPS application normalized to the first, control cells ([14]; no ryanodine): 0.77 ± 0.35

Compound: O=C(NCc1ccc(F)cc1)N1CCN2C(=O)OC(c3ccccc3)(c3ccccc3)C2C1 (centres unmarked) [SHA68, 3-oxo-1,1-diphenyl-tetrahydro-oxazolo[3,4-a]pyrazine-7-carboxylic acid 4-fluoro-benzylamide]
- effect of SHA68 on NPS-evoked Ca2+ signals [8]: NPS application failed to induce Ca^2+ signals in the same neurons; also recorded: reduced the effect of NPS to a level non-significantly different from baseline
- normalized mean fluorescence amplitude evoked by NPS after washout of SHA68 [8]: 1.2 ± 1.6
- normalized mean fluorescence amplitude evoked by NPS in presence of SHA68 [8]: 0.5 ± 0.7
- effect on NPS-mediated calcium mobilization [15]: blocks NPS-mediated calcium mobilization

Compound: COc1ccc(CCCOC(Cn2ccnc2)c2ccc(OC)cc2)cc1 (centres unmarked) [SKF96365]
- inhibition of STIM-mediated SOCE [16]: inhibit STIM-mediated SOCE
- inhibition of SOCE [17]: inhibit SOCE
- effect on duration and amplitude of slow component of NPSR1-evoked calcium signals ([13]; ML-9 50 μM, SKF96365 15 μM): consistently reduced the duration and amplitude of the slow component
- integral of response amplitude of slow component in presence of SKF96365 ([13]; SKF96365 15 μM (300 s pre-incubation), 127 cells, mean ± SD): 30.42 ± 3.8 x 10^4 (arbitrary units)

Compound: NC1=N[C@H](O)[C@H]2[C@H]3O[C@]4(O)O[C@@H]([C@@H](O)[C@@]2(N1)[C@@H]4O)[C@]3(O)CO [TTX, tetrodotoxin]
- effect of TTX on NPSR1-mediated calcium signals [18]: not affected

Compound: COc1ccc2c(c1)CC[C@@H]1[C@@H]2CC[C@]2(C)[C@@H](NCCCCCCN3C(=O)C=CC3=O)CC[C@@H]12 [U73122]
- effect of U73122 on NPS-mediated calcium release [12]: abolished NPS-mediated calcium release
- mean fluorescence amplitude when U73122 and NPS were co-applied [12]: 0.14 ± 0.14

Compound: ryanodine
- normalized mean fluorescence amplitude evoked by NPS in presence of ryanodine ([14]; ryanodine 50 μM (300 s pre-incubation), 136 neurons, ANOVA p < 0.0001): 0.51 ± 0.37
- amplitude of second NPS application normalized to the first, RyRs blocked ([14]; ryanodine 50 μM, t-test vs control p < 0.0001): 0.24 ± 0.25
